Where a name gives a salt, the structure may show the parent alone.
Tests used:
[1] = system: craving for ethyl alcohol in alcoholics; assay: Clinical study, craving for ethyl alcohol in alcoholics (overall); format: in vivo, man; conditions: overall clinical conclusion
Description: To the end of demostrating the efficacy of the pharmaceutical compositions according to the invention we have furthermore carried out some […] tests to evaluate the efficacy of GHB salts in obtaining and mantaining abstention from alcoholic drinks in man; we synthetically report herein below the methods followed and the results obtained in one of such studies.
(§1) Finally, to the end of proving that the craving for drinks containing ethyl alcohol ("craving" for short) can be modified by pharmacological treatment with the compositions according to the present invention, we have selected 40 alcohol-dependent individuals according to the Diagnostic and Statistic Manual, 3rd edition Revised (DMS-III R) classification.
(§2) […] a NaGHB treatment at the doses of 0.05 g/kg/day in two administrations was given for an average period of 4-6 weeks.
(§3) In order to obtain a further experimental confirmation of the results obtained in the open test, we have carried out a test in double-blind.
(§4) 80 individuals, alcohol dependent according to DSM III-R, were divided in two groups by simple randomization and treated with NaGHB or with a placebo at the doses of 0.05 g/kg/day divided in two administrations for a total of 60 days.

[2] = Acute toxicity for intraperitoneal administration in the mouse; format: in vivo; conditions: in vivo, ip; for mortality: read-out: Mortality (M + F)
mouse [3] = assay: as above; format: in vivo
[4] = system: craving for drinks containing ethyl alcohol; assay: Craving in alcohol-dependent individuals, open test; format: in vivo, man
Description: (§5) To this end we have prepared a questionnaire entitled "Restrained Drinking and Alcohol Craving Scale" (RDAGS) and we have examined whether said questionnaire was capable of differentiating between alcoholics and non-alcoholics.
as §1, §2
For comparison, a group of 40 alcoholics was examined, using the same criteria as for the NaGHB treatment groups; to this group a psychological and/or socio-rehabilitation technique was applied, with no specific pharmacological support (polyvitamins only).

[5] = Acute toxicity for oral administration in the mouse; format: in vivo; conditions: in vivo; for mortality: read-out: Mortality (M+F)
mouse [6] = assay: as above; format: in vivo
rat = assay: Chronic toxicity tests on the rat; format: in vivo
[7] = system: craving for drinks containing ethyl alcohol; assay: Craving in alcohol-dependent individuals, double-blind test; format: in vivo, man
Description: as §5, §3, §4

[8] = system: aldehyde dehydrogenase (ALDH); assay: ALDH activity in supernatant of rat liver homogenate; format: biochemical; conditions: for ALDH activity: pyrazole 0.03M, propionaldehyde substrate, mean±M.S.E. of three experiments
Method: (§6) The ADH and ALDH activity were measured using the surnatant of rat liver homogenate. The ADH activity was measured by oxidising the ethanol to acetaldehyde in the presence of NAD in tubes containing NaGHB.
(§7) The formation of reduced nicotine-adenine dinucleotide (NADH) was determined by spectrometry measurement at 340 nm and the ALDH activity was determined in the same manner. In addition, pyrazole (0.03M) was added to the reaction mixture to inhibit ADH and propionaldehyde was added as substrate. Each value is the mean±M.S.E. of three experiments.

[9] = target: T1, alcohol dehydrogenase (ADH) (Rattus norvegicus, UniProt P06757); assay: ADH activity in supernatant of rat liver homogenate; format: biochemical; conditions: for ADH activity: mean±M.S.E. of three experiments
T1 construct: measured using the surnatant of rat liver homogenate; from tissue; host or cells: rat liver homogenate supernatant
T1 sequence (P06757 whole entry): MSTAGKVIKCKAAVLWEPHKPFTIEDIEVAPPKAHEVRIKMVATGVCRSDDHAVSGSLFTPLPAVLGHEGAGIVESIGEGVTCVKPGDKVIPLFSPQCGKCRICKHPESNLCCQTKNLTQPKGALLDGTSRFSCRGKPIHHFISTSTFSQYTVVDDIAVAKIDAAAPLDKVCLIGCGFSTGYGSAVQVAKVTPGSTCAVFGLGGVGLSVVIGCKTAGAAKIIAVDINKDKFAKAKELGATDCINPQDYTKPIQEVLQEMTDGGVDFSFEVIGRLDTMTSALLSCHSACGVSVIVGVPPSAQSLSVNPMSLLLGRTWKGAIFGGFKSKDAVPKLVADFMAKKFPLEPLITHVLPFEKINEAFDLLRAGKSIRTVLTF
Method: as §6, §7

alcohol-preferring rats [10] = assay: Voluntary consumption of ethanol in alcohol-preferring rats, NaGHB (Table 2); format: in vivo, male Wistar rats; conditions: for Ethanol consumption, treatment: three consecutive days
Method: The trial was carried out on male Wistar rats of initial weight 130-160 g. The alcohol-preferring rats were chosen from a heterogeneous rat population having an average age of 40 days. The animals were caged individually and kept in an environment at a temperature of 24° C., with light from 8.00 to 20.00 hous. The method used to select alcohol-preferring rats was to allow the animals to choose from two bottles, one containing water and the other containing an increasingly strong ethanol solution. The tapwater and the ethanol solution were administered from graduated bottles (Richter), their positon being changed irregularly to prevent the habit of drinking from the same bottle. Starting from a 3% ethanol solution, the concentration was increased by 1% every day to a maximum of 10%. This ethanol concentration was used for the whole trial period. The experiments were carried out only on rats by whom more than 60% of the liquid drunk had been 10% ethanol. The thus chosen rats imbibed a constant mean ethanol quantity of 3.2±0.4 g/rat/day. The weight of the animals during this period was 380±35 g, and therefore the consumption of absolute alcohol per rat per kg of body weight was 8±0.54 g.
Different randomly chosen groups of these animals were respectively treated with increasing doses of the sodium salt of gamma-hydroxy butyric acid (NaGHB) wheas the control group received the same volume of physiological solution (10 ml/kg). The quantity of ethanol and water imbibed was recorded before, during and after treatment at the same time each day, and the treatment was repeated for three consecutive days.
The results of this trial are given in Table 2 which compares ethanol consumption in g/kg before, during and after treatment with NaGHB at three different doses of 150, 300 and 450 mg/kg.

alcohol-preferring rats [11] = assay: Inhibition of voluntary ethanol consumption by alcohol-preferring rats, PTT-01 (Table 1); format: in vivo, rat; conditions: mean of 10 animals
Description: Each value represents the mean of 10 aminals.

[12] = cited from earlier work
patients = conditions: cited from earlier work
[13] = system: aldehyde-dehydrogenase enzyme; conditions: assumed competition with NAD on active sites; cited from earlier work
[14] = 0.05 g/kg/day in two administrations, 60 days, vs placebo

Compound: O=C(O)CCCO [GHB, gamma-hydroxybutyric acid]
- suppression of craving for ethyl alcohol in alcoholics [1]: surprising activity of GHB in suppressing the craving for ethyl alcohol in alcoholics

Compound: O=C(O)CCCO [NaGHB, sodium salt of gamma-hydroxybutyric acid]
- mortality ([2]; 2500 mg/kg, 2.5 g/kg): 0%
- mortality ([2]; 3000 mg/kg, 3 g/kg): 33.3%
- mortality ([2]; 3500 mg/kg, 3.5 g/kg): 66.7%
- mortality ([2]; 4000 mg/kg, 4 g/kg): 100%
- LD50 ([2]; Table 5, 95% CL 2.92-3.521): 3210 mg/kg
- LD50 (mouse [3]): 3210 mg/kg
- craving reduction ([4]; 0.05 g/kg/day in two administrations, 4-6 weeks): statistically highly significant craving reduction
- Craving decrease induced by NaGHB ([4]; 40 alcohol-dependents in open test (Table 6)): Efficient
- mortality ([5]; 10000 mg/kg, 10 g/kg): 0%
- mortality ([5]; 11000 mg/kg, 11 g/kg): 33.3%
- mortality ([5]; 13000 mg/kg, 13 g/kg): 66.6%
- mortality ([5]; 15000 mg/kg, 15 g/kg): 100%
- LD50 ([5]; Table 4, 95% CL 10.95-13.17): 12000 mg/kg
- LD50 (mouse [6]): 12014 mg/kg
- toxic action at organ level (rat): No toxic action at organ level was observed
- drop-out percentage [7, 14]: lower, statistically significant, drop-out percentage
- improvement of the craving [7, 14]: notable improvement of the craving
- Craving decrease induced by NaGHB ([7]; 40 alcohol dependents in double blind test (Table 6)): Efficient
- acetaldehyde metabolism [8]: without in any way altering acetaldehyde metabolism
- ALDH activity ([8]; 10^-3 molar): 0.0132 ± 0.0009 D.O/min/mg prot
- ALDH activity ([8]; 10^-4 molar): 0.0138 ± 0.0011 D.O/min/mg prot
- ALDH activity ([8]; 10^-5 molar): 0.0135 ± 0.0010 D.O/min/mg prot
- inhibition of aldehyde dehydrogenase (ALDH) ([8]; up to 10^-3 M): does not inhibit
- ADH activity ([9]; 10^-3 molar): 0.0239 ± 0.0015 D.O/min/mg prot
- ADH activity ([9]; 10^-4 molar): 0.0240 ± 0.0018 D.O/min/mg prot
- ADH activity ([9]; 10^-5 molar): 0.0245 ± 0.0018 D.O/min/mg prot
- inhibition of alcohol dehydrogenase (ADH) ([9]; up to 10^-3 M): does not inhibit
- Ethanol consumption, post-treatment (alcohol-preferring rats [10]; NaGHB 150 mg/kg): 7.02 ± 0.44 g/kg
- Ethanol consumption, pretreatment (alcohol-preferring rats [10]; NaGHB 150 mg/kg group): 7.71 ± 0.51 g/kg
- Ethanol consumption, treatment (alcohol-preferring rats [10]; NaGHB 150 mg/kg): 6.11 ± 0.21 g/kg
- Ethanol consumption, post-treatment (alcohol-preferring rats [10]; NaGHB 300 mg/kg): 5.88 ± 0.35 g/kg
- Ethanol consumption, pretreatment (alcohol-preferring rats [10]; NaGHB 300 mg/kg group): 7.48 ± 0.35 g/kg
- Ethanol consumption, treatment (alcohol-preferring rats [10]; NaGHB 300 mg/kg): 3.43 ± 0.23 g/kg
- Ethanol consumption, post-treatment (alcohol-preferring rats [10]; NaGHB 450 mg/kg): 5.10 ± 0.48 g/kg
- Ethanol consumption, pretreatment (alcohol-preferring rats [10]; NaGHB 450 mg/kg group): 7.82 ± 0.46 g/kg
- Ethanol consumption, treatment (alcohol-preferring rats [10]; NaGHB 450 mg/kg): 2.12 ± 0.11 g/kg
- consumption of ethyl alcohol relative to consumption before treatment (alcohol-preferring rats [10]; daily administration, 450 mg/kg): below 50%
- total imbibed fluid (alcohol-preferring rats [10]; during treatment): no significant reduction in total imbibed fluid
- Alcohol consumption and preference for alcohol after interrupting administration (alcohol-preferring rats [10]; five days after interruption): returned to their pre-treatment levels five days after interrupting the administration of the medicament

Compound: CCCCC(=O)NC1CCOC1=O (stereo not drawn) [PTT-01, α-n-butyl carbonylamino-gamma-butyro lactone]
- Ethanol consumption, pretreatment (alcohol-preferring rats [11]; PTT-01 100 mg/kg group): 7.21 ± 0.40 g/kg
- Ethanol consumption, post-treatment (alcohol-preferring rats [11]; PTT-01 100 mg/kg): 7.24 ± 0.44 g/kg
- Ethanol consumption, treatment (alcohol-preferring rats [11]; PTT-01 100 mg/kg): 7.03 ± 0.38 g/kg
- Ethanol consumption, pretreatment (alcohol-preferring rats [11]; PTT-01 200 mg/kg group): 7.70 ± 0.28 g/kg
- Ethanol consumption, post-treatment (alcohol-preferring rats [11]; PTT-01 200 mg/kg): 7.36 ± 0.51 g/kg
- Ethanol consumption, treatment (alcohol-preferring rats [11]; PTT-01 200 mg/kg): 7.51 ± 0.41 g/kg
- Ethanol consumption, pretreatment (alcohol-preferring rats [11]; PTT-01 300 mg/kg group): 7.08 ± 0.19 g/kg
- Ethanol consumption, post-treatment (alcohol-preferring rats [11]; PTT-01 300 mg/kg): 6.98 ± 0.15 g/kg
- Ethanol consumption, treatment (alcohol-preferring rats [11]; PTT-01 300 mg/kg): 7.00 ± 0.46 g/kg

Compound: CCN(CC)C(=S)SSC(=S)N(CC)CC [disulfiram]
- acetaldehyde level in the blood, times greater than with alcohol alone ([12]; alcohol after disulfiram pretreatment vs same dose of alcohol only): 5-10 times
- acetaldehyde concentration ([12]; in the presence of disulfiram): acetaldehyde concentration increases
- toxicity when administered alone (patients; alone, therapeutic doses): not toxic, although not completely innocuous
- side effects (patients; disulfiram itself): can cause acneform eruptions, allergic dermatitis, urticaria, tiredness, fatique, tremors, reduced sexual power, gastric disturbances and digestive disturbances
- adverse reactions following disulfiram treatment (patients; following treatment, discussed with ingestion of alcohol): cases of respiratory depression, cardiovascular collapse, cardiac arrhythmia, myocardium infarct, and sudden or unexpected death have occurred
- refusal of alcoholic drinks (patients; patients treated): refuse alcoholic drinks
- acetaldehyde oxidation rate [13]: reducing the acetaldehyde oxidation rate
